Reference: patent publication US20240084258A1, “METHOD FOR PREPARING BROWN ADIPOCYTE” (KYOTO PREFECTURAL PUBLIC UNIVERSITY CORPORATION, priority 2015, published 2024)

How the values were obtained:
[1] = system: human dermal fibroblasts (HDFs); test: UCP1, CIDEA and KCNK3 gene mRNA by real time RT-PCR (Example 17); assay type: cell-based
Experimental: (Day −1). In the control (Ctrl) group, the culture supernatant of the next day (Day 0) was removed by suction and the cells were cultured in a normal medium up to day 14 while substituting the medium with a fresh one once every other day. In groups other than the control (Ctrl) group, the culture supernatant was removed by suction on day 0, and an adipocyte induction medium added with any of ALK5 inhibitor II (4 μM) and LY2157299 (8 μM) was added at 1 mL/well.
Thereafter, the cells were cultured in an adipocyte induction medium free of any compound of ALK5 inhibitor II and LY215799 during Day 9-Day 14. On day 14, the medium was removed by suction from the wells of all groups, and the cells were washed with PBS(−).

[2] = system: human dermal fibroblasts (HDFs)
Experimental: Human normal skin-derived fibroblast (human dermal fibroblasts; HDFs) were suspended in a normal medium (10% FBS-added Dulbecco's modified minimum essential medium; DMEM). This was seeded in a 12-well plate at a concentration of 3×10^4 cells/well and culturing was started at 5% CO2/95% humidified air, 37° C. The next day (day 0), the culture supernatant was removed by suction and a normal medium (group 1), an adipocyte induction medium (group 2), or an adipocyte induction medium (groups 3-8) added with ALK5 inhibitor II at concentration of 4 μM was added at 1 mL/well.
Once every 2 days, the medium was substituted by a fresh one. In groups 3-7, the cells were cultured in an adipocyte induction medium added with ALK5 inhibitor II only in the periods of Days 0-2, Days 0-4, Days 0-6, Days 0-8 and Days 0-10, respectively, and thereafter cultured in an adipocyte induction medium without addition of ALK5 inhibitor II. In group 8, the cells were cultured in an adipocyte induction medium added with ALK5 inhibitor II throughout the whole period of Days 0-14.

[3] = system: human dermal fibroblasts (HDFs); test: BODIPY, UCP1 and DAPI co-staining (Example 10); assay type: cell-based; settings: D4476 2 μM in addition to T3 and Rosiglitazone, day 14, FIG. 10A, 10B
Experimental: (§1) The next day, the culture supernatant was removed by suction and, as described in the Figure, a normal medium, an adipocyte induction medium, or an adipocyte induction medium added with each low-molecular-weight compound and the like was added at 500 μL/well.
(§2) The adipocyte induction medium is a 10% FBS-added DMEM+MDI medium (10% FBS-added DMEM supplemented with 0.5 mM isobutylmethylxanthine (IBMX), 0.5 μM dexamethason and 1 μg/mL Insulin).
(§3) The concentrations of the additives are as follows: • T3: 1 nM • Rosiglitazone: 1 μM • D4476: 2 μM.
(§4) The culture medium was substituted by a fresh one every 3-4 days and the cells were cultured up to day 14.
The cells were fixed with 4% para-formaldehyde and washed with PBS(−).
Then, the cells were reacted in BODIPY 493/503 (Invitrogen)/PBS solution at room temperature for 5 min, washed 3 times with PBS and stained with DAPI. The cells were photographed at a magnification of 200 with a fluorescence microscope.

[4] = system: human dermal fibroblasts (HDFs); test: Oil Red O staining (Example 9); assay type: cell-based; settings: D4476 2 μM in addition to Rosiglitazone and T3, day 14, FIG. 9
Experimental: as §1, §2, §3, §4
The cells were washed 3 times with sterile distilled water, Oil Red O staining solution was added, and the mixture was incubated at room temperature for 15 min. Then the cells were washed with sterile distilled water and photographed at a magnification of 100 with a microscope.

[5] = system: human dermal fibroblasts (HDFs); test: UCP1 gene mRNA by real time RT-PCR (Example 2); assay type: cell-based; settings: induction medium + T3 + Rosiglitazone, D4476 2 μM, FSK 2 μM, PD0325901 1 μM, SB431542 2 μM, day 14, FIG. 2
Experimental: This was seeded in a 24-well plate at a concentration of 1×10^4 cells/well (day 0), and culturing was started at 5% CO2/95% humid air, 37° C. The next day, the culture supernatant was removed by suction and, as described in the Figure, a normal medium, an adipocyte induction medium, or an adipocyte induction medium added with each low-molecular compound and the like was added at 500 μL/well. […] The concentrations of the additives are as follows: • T3: 1 nM • Rosiglitazone: 1 μM • D4476: 2 μM • Pifithrin alpha [p53 inhibitor]: 5 μM • Forskolin (FSK): 2 μM • PD0325901: 1 μM • SB431542: 2 μM. The culture medium was substituted by a fresh one every 3-4 days and the cells were cultured up to day 14.

[6] = system: human dermal fibroblasts (HDFs); test: UCP1 mRNA response of induced cells to Isoproterenol or FSK stimulation (Example 3); assay type: cell-based; settings: cells cultured 14 days in induction medium with D4476 in addition to T3 and Rosiglitazone; FIG. 3
Experimental: 10 μM Isoproterenol or FSK was added to these cells as described in the Figure. As a control, a group free of the addition was also prepared. After 5 hr, the culture medium was removed from each well by suction, the cells were washed with PBS(−) and total RNA was extracted from the cells with ISOGEN II. qRT-PCR was performed in the same manner as in Example 2. The mRNA level of UCP1 gene was quantified as a ratio to […] gene mRNA and calculated with the value of fibroblast cultured in the normal medium as 1.

[7] = ALK5 inhibitor II 4 μM or LY2157299 8 μM up to Day 9, day 14, FIG. 17

Compound | CIDEA gene expression [1, 7] | KCNK3 gene expression [1, 7] | UCP1 gene expression [1, 7] | strength of induction of UCP1 gene expression, compared with LY2157299 ([1]; ALK5 inhibitor II 4 μM versus LY2157299 8 μM, day 14) | staining intensity of UCP1 protein and staining positive cells ([2]; #6: ALK5 inhibitor II 4 μM for days 0-8, then 6 days without it) | UCP1 protein expression by immunostaining (conversion to brown adipocytes) ([2]; HDFs, ALK5 inhibitor II 4 μM in adipocyte induction medium, day 14, FIG. 14A, 14B) | UCP1 protein expression ([2]; other conditions cultured in the presence of ALK5 inhibitor II (in FIG. #2-5, 7, 8)) | lipid droplets stained with Bodipy and UCP1 protein [3] | Oil Red O staining [4] | mRNA expression of UCP1 gene (conversion to brown adipocytes) [5] | responsiveness of induced cells to Isoproterenol or FSK stimuli [6]
Cc1cccc(-c2n[nH]cc2-c2ccc3ncccc3n2)n1 [ALK5 Inhibitor II, 2-(3-(6-Methylpyridin-2-yl)-1H-pyrazol-4-yl)-1,5-naphthyridine] | induced into brown adipocytes expressing UCP1 gene, CIDEA gene and KCNK3 gene | induced into brown adipocytes expressing UCP1 gene, CIDEA gene and KCNK3 gene | induced into brown adipocytes expressing UCP1 gene, CIDEA gene and KCNK3 gene | more strongly induced | the staining intensity of UCP1 protein was high and many staining positive cells were present | converted to brown adipocytes highly expressing UCP1 protein | High expression of UCP1 protein was also detected |  |  |  | 
NC(=O)c1ccc(-c2nc(-c3ccc4c(c3)OCCO4)c(-c3ccccn3)[nH]2)cc1 [D4476, 4-[4-(2,3-dihydro-1,4-benzodioxin-6-yl)-5-(2-pyridlnyl-)1H-imidazol-2-yl]-benzamide] |  |  |  |  |  |  |  | converted to brown adipocytes expressing lipid droplets stained with Bodipy and UCP1 protein | remarkable Oil Red O staining as compared to the control | induced to brown adipocytes that express mRNA of UCP1 gene | brown adipocyte-like responsiveness
